The values below are quoted from earlier work in patent US20230111568A1, “SOLID DISPERSIONS OF RIFAXIMIN FOR THE TREATMENT OF OVERT HEPATIC ENCEPHALOPATHY” (Bausch Health Ireland Limited, priority 2020, published 2023).

The subject of this data set is complications of cirrhosis.

As for `CO[C@H]1/C=C/O[C@@]2(C)Oc3c(C)c(O)c4c(O)c(c5c(nc6cc(C)ccn65)c4c3C2=O)NC(=O)/C(C)=C\C=C\[C@H](C)[C@H](O)[C@@H](C)[C@@H](O)[C@@H](C)[C@H](OC(C)=O)[C@@H]1C` [rifaximin], where the note is “literature (Conf. Proc. IEEE Eng. Med. Biol. Soc. 2013)”, the “HE recurrences, hospitalizations, adverse events, survival” value is “protect from HE recurrences with decreased HE-related and all-cause hospitalizations without an increased rate of adverse events (AEs) or decreased survival”. Under “literature (Conf. Proc. IEEE Eng. Med. Biol. Soc.)”, the “overall rates of infection, antibiotic use and other complications of cirrhosis” value was “reduces or maintains the overall rates of infection, antibiotic use, and other complications of cirrhosis such as ascites”. For the same compound, under “literature (Journal of Gastroenterology and Hepatology 28(3))”, the “survival and risk of variceal bleeding, HE, SBP or HRS” value was “independently associated with higher survival and lower risk of developing variceal bleeding, HE, SBP, or HRS”.
